According to PubChem BioAssay (NCI):
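How tested: cells in 96-well plates exposed to compound for 48 hours at five concentrations. TGI: concentration producing complete growth inhibition.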

Legend:
Test in all cases: NCI-60 cell line screen, 48 h
SK-MEL-5 melanoma = tested on: SK-MEL-5 melanoma
SNB-19 CNS = tested on: SNB-19 CNS
K-562 leukemia = tested on: K-562 leukemia
HL-60(TB) leukemia = tested on: HL-60(TB) leukemia
NCI/ADR-RES ovarian = tested on: NCI/ADR-RES ovarian
COLO 205 colon = tested on: COLO 205 colon
T-47D breast = tested on: T-47D breast
NCI-H460 lung = tested on: NCI-H460 lung
HCT-116 colon = tested on: HCT-116 colon
SN12C renal = tested on: SN12C renal
NCI-H226 lung = tested on: NCI-H226 lung
CAKI-1 renal = tested on: CAKI-1 renal
LOX IMVI melanoma = tested on: LOX IMVI melanoma
HCC-2998 colon = tested on: HCC-2998 colon
HOP-62 NSCLC = tested on: HOP-62 NSCLC
SK-MEL-28 melanoma = tested on: SK-MEL-28 melanoma
OVCAR-5 ovarian = tested on: OVCAR-5 ovarian

Compound | TGI (SK-MEL-5 melanoma) | TGI (SNB-19 CNS) | TGI (K-562 leukemia) | TGI (HL-60(TB) leukemia) | TGI (NCI/ADR-RES ovarian) | TGI (COLO 205 colon) | TGI (T-47D breast) | TGI (NCI-H460 lung) | TGI (HCT-116 colon) | TGI (SN12C renal) | TGI (NCI-H226 lung) | TGI (CAKI-1 renal) | TGI (LOX IMVI melanoma) | TGI (HCC-2998 colon) | TGI (HOP-62 NSCLC) | TGI (SK-MEL-28 melanoma) | TGI (OVCAR-5 ovarian)
N#CCCN(CCN(C(=O)Nc1ccccc1)c1ccccc1)C(=O)Nc1ccccc1 | > 100 µM | > 100 µM | > 92.1 µM | 34.7 µM | > 100 µM | > 100 µM | > 100 µM | > 100 µM | > 100 µM | > 100 µM | > 100 µM | > 63.1 µM | > 100 µM | > 100 µM | > 100 µM | > 100 µM | > 100 µM
COc1cc2c(cc1O)[C@@H]1Cc3c(cc(OC)c(OC)c3Oc3cc4c(cc3OC)CCN(C)[C@@H]4Cc3ccc(O)cc3)[C@H](C2)N1C | 30.1 µM | > 100 µM | 45.8 µM | 36.6 µM | > 100 µM | 38.2 µM | > 100 µM | > 100 µM | > 100 µM | > 100 µM | > 100 µM | > 100 µM | 37.7 µM | > 72 µM | > 100 µM | 34.9 µM | > 100 µM
Cc1c(C)c2c(c(N)c1C#N)C(=O)N(CCN1CCNCC1)C2=O |  | > 100 µM | > 100 µM | > 100 µM | > 100 µM | 78.7 µM | > 100 µM | > 100 µM | 52.2 µM | > 100 µM | > 100 µM | > 100 µM | 47.9 µM | > 100 µM |  | > 100 µM | 81.1 µM
CC(=O)OC1CC[C@]2(C)C3CC[C@@]4(C)C(CCC4[C@H](C)CCCC(C)C)[C@@H]3CCC2(Br)C1 (some centres undefined) |  | > 50 µM | 35.2 µM | 28.3 µM | > 50 µM | 20.9 µM | > 50 µM | > 50 µM | 16.5 µM | > 50 µM | > 50 µM | 25 µM | 29.4 µM | > 50 µM | > 50 µM | 16.2 µM | > 50 µM
O=C(O)c1ccccc1/C=N/NC1=NCCCCN1 | > 100 µM | > 100 µM | > 100 µM | > 100 µM | > 100 µM | > 100 µM | > 100 µM | > 100 µM | > 100 µM |  | > 100 µM |  | > 100 µM | > 100 µM | > 100 µM | > 100 µM | > 100 µM
NC(N)=NCCCC(NC(=O)OCCCCCCn1ccc(N)nc1=O)C(=O)O (centres undefined) |  | > 100 µM | > 100 µM | > 100 µM | > 100 µM | > 100 µM | > 100 µM | > 100 µM | > 100 µM | > 100 µM | 33.6 µM | > 100 µM | > 100 µM | > 100 µM | > 100 µM | > 100 µM | > 100 µM
NNc1[nH]c(=S)[nH]c1C(N)=O | > 100 µM |  |  | > 100 µM | > 100 µM | > 100 µM | > 100 µM | > 100 µM | > 100 µM | > 100 µM | > 100 µM |  | > 100 µM | > 100 µM | > 100 µM | > 100 µM | > 100 µM
NC(=O)NC(=O)c1cccc(NC(=O)CBr)c1 | < 0.0184 µM | 13.1 µM | 1.49 µM | < 0.0207 µM | 0.799 µM | < 0.01 µM | 3.7 µM | 0.166 µM | < 0.01 µM | 0.391 µM | 0.067 µM | 0.321 µM | 0.193 µM |  | 1.29 µM | 7.47 µM | 1.89 µM
C=CC(C)CCC(C/C=C(\C)CCC=C(C)C)C(=C)CCCC(C)C (centres undefined) | > 100 µM | > 100 µM | > 100 µM | > 100 µM | > 100 µM | > 100 µM | > 100 µM | > 100 µM | > 100 µM | > 100 µM |  | > 100 µM | > 100 µM | > 100 µM | > 100 µM | > 100 µM | > 100 µM
Clc1nc2n(c1/C=C/c1cccs1)CCS2 | 32.9 µM | > 100 µM | > 100 µM | > 100 µM | > 100 µM | > 100 µM | 69.3 µM |  | > 100 µM | > 100 µM | > 100 µM | 55.2 µM |  | > 100 µM | > 100 µM | > 100 µM | > 100 µM
C/C=C/C(=O)N1C(=O)OC[C@@H]1c1ccccc1 | 38.4 µM | 41.4 µM | 56 µM | 43 µM | 44.4 µM | 39.1 µM | 36.8 µM |  | 38.1 µM | 37.2 µM | 39.6 µM | 32.6 µM | 35 µM | 41.3 µM | 41.1 µM | 45.5 µM | 31.7 µM
CCOC(=O)c1cnc(-n2[nH]c3c(c2=O)CCCC3)[nH]c1=O | > 100 µM | > 100 µM | > 100 µM | > 100 µM | > 100 µM | > 100 µM | > 100 µM | > 100 µM | > 100 µM | > 100 µM | > 100 µM | > 100 µM |  |  |  | > 100 µM | > 100 µM
CCc1c(Cc2cc(C)cc(C)c2)n2c(nc1=O)SCC2CBr (centres undefined) | > 50 µM | > 50 µM | > 50 µM | > 50 µM | > 50 µM | > 50 µM | > 50 µM | > 50 µM | > 50 µM | > 50 µM | > 50 µM | > 50 µM | > 50 µM | > 50 µM |  | > 50 µM | > 50 µM
NCCN1CC2CCC(CC2)C1 | > 10 µM | > 10 µM | > 10 µM | > 10 µM | > 10 µM | > 10 µM | > 10 µM | > 10 µM | > 10 µM | > 10 µM | > 10 µM | > 10 µM | > 10 µM | > 10 µM | > 10 µM | > 10 µM | 
